From patent US20100160369A1, “S1P1 Agonists and Methods of Making And Using” (EXELIXIS, INC., priority 2008, published 2010)

How the values were obtained:
hS1P1R (hEdg1) = biological target: T1, hS1P1R (hEdg1) (Homo sapiens, UniProt P21453); assay: hS1P1R GTPγS Binding Assay (Assay 3a); format: biochemical
T1 construct: purchased Lonza
Summary of the method: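 Human S1P1 receptor membranes (4 μg) incubated 1 h at room temperature with 30 μM GDP, 0.1 nM [35S]GTPγS, 0.25% fatty-acid-free BSA and serially diluted agonist in pH 7.9 Tris buffer with Mg2+ and EGTA. Bound radioactivity read by WGA SPA after a further 1 h; EC50 reported unless noted.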

S1P1 [1] = biological target: T2, S1P1 (Homo sapiens, UniProt P21453); assay: Tango β-arrestin Recruitment Assay in HEK293 cells (Assay 2a); format: cell-based; parameters: linker with TEV protease (N1a) cleavage site (C); host or cells: HEK293, transiently transfected; conditions: Tango β-arrestin Recruitment Assay, read-out: Assay 2a EC50
Summary of the method: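 HEK293 cells transiently expressing S1P1 (TEV-cleavable tTA fusion) with β-arrestin2–TEV; compounds up to 10 μM, 10-point 3-fold, 1% DMSO, 30 min then 16–18 h at 37 °C. Luciferase luminescence normalised to 5 μM S1P as 100% and DMSO as background; EC50 from percent-activity curves.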
Target sequence in this assay (P21453 whole entry, the tested form may be a part): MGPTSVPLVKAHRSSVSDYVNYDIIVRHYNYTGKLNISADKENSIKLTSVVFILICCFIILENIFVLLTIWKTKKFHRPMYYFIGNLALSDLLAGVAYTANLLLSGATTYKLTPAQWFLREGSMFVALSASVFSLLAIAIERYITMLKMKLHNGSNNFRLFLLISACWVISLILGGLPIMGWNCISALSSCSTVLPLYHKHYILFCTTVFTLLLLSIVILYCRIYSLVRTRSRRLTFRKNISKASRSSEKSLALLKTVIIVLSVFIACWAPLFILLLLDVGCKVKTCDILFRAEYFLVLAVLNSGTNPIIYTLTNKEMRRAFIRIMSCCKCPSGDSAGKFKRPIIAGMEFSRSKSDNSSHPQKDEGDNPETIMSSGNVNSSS
Target sequence in this assay (P32121 whole entry partner, the tested form may be a part): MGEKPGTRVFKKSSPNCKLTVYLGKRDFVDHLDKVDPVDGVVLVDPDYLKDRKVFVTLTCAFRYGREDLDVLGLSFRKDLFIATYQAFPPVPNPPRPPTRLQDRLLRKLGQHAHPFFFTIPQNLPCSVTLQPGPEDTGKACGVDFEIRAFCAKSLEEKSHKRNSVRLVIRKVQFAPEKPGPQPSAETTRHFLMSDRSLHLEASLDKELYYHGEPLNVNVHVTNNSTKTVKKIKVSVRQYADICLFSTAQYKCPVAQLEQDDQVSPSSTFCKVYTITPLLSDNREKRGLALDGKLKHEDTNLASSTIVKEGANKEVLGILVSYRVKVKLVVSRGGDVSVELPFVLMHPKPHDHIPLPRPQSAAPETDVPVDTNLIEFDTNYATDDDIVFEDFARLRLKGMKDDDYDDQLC

S1P1 [2] = biological target: T2, S1P1; assay: DELFIA GTP-Eu Binding Assay (Assay 3b); format: biochemical; parameters: purchased Lonza; host or cells: CHO cell membranes
Description: The DELFIA GTP-Eu binding assay (PerkinElmer) is a time-resolved fluorometric assay based on GDP-GTP exchange. CHO cell membranes (Lonza) expressing human S1P1 were incubated in 96-well filter plates (Pall, East Hills, N.Y.) in a final volume of 100 μL/well buffer containing 40 μg/mL membrane, 50 mM HEPES, 2 μM GDP, 10 mM MgCl2, 100 mM NaCl, 500 μg/mL Saponin and test compound. Test compounds were tested at maximum concentrations of 10 μM. Compounds were diluted (10 concentration points, 3-fold each) and added to the assay plate at a 1% final DMSO concentration. For each compound, there were duplicate assay plates and each assay plate had duplicate wells per concentration point. The plates were incubated for 30 min at room temperature on a plate shaker at low speed. GTP-Eu was added to each well (10 μL, 10 nM final concentration) and the plate was incubated for an additional 30 min with slow shaking The wells were washed with ice cold GTP washing buffer (3×150 μL) using a vacuum manifold and the assay plates read in an EnVision plate reader (PerkinElmer) at an excitation wavelength of 340 nm and an emission wavelength of 615 nm. To determine agonist activity, percent activity was calculated as [(test compound−background)/(positive control−background)*100], where background is the fluorescence in absence of compound and the positive control is the fluorescence from membranes incubated with 1 μM S1P (Avanti). The percent activities were plotted against compound concentration to determine IC50 or EC50 using XLFit (IDBS).
Assay 1 is the CNG cAMP Assay as described in Biological Example 1. Assay 2a and 2b are the Tango™ β-arrestin Recruitment Assay in HEK293 and U2OS cells, respectively, as described in Biological Example 2. Assay 3a is the hS1P1R GTPγS Binding Assay as described in Biological Example 3. Assay 3b is the GTP-Eu Binding Assay as described in Biological Example 3. EC50's were measured unless otherwise noted. […] In the table, “nt” means the Compound was not tested and “no” means the compound was tested but had no measurable activity under the assay conditions employed.
Target sequence in this assay (P21453 whole entry, the tested form may be a part): as the sequence (P21453 whole entry, the tested form may be a part) above

S1P1 [3] = biological target: T2, S1P1; assay: CNG cAMP Assay (Assay 1); format: cell-based; parameters: host or cells: HEK293 cells expressing the CNG channel; conditions: read-out: Assay 1 EC50
Summary of the method: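 HEK293 cells expressing CNG channel and S1P1, membrane-potential dye loaded; compounds (top 10 μM, 10-point 3-fold, 1.8% DMSO) added with 25 μM Ro 20-1724, 500 nM NECA and 10 nM S1P for 90 min. T90/T0 fluorescence (Ex 350/Em 590 nm) normalised to NECA-alone vs DMSO; EC50 fitted.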
Target sequence in this assay (P21453 whole entry, the tested form may be a part): as above

S1P1 [4] = biological target: T2, S1P1; assay: Tango β-arrestin Recruitment Assay in U2OS cells (Assay 2b); format: cell-based; parameters: linker with TEV protease (N1a) cleavage site (C); conditions: Tango β-arrestin Recruitment Assay, read-out: Assay 2b EC50
Summary of the method: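 U2OS cells expressing S1P1 and reporter, serum-starved 48 h, treated with compound (10-point 3-fold series, top 1 μM, 1% DMSO) overnight at 37 °C; β-lactamase substrate added 2 h at room temperature. F460/F530 ratio normalised to 1 μM S1P (100%) and DMSO; EC50 from concentration-response.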
Target sequence in this assay (P21453 whole entry, the tested form may be a part): as above
Target sequence in this assay (P32121 whole entry partner, the tested form may be a part): as the sequence (P32121 whole entry partner, the tested form may be a part) above

T1 sequence (P21453 whole entry): as the sequence (P21453 whole entry, the tested form may be a part) above

| Compound | EC50 (hS1P1R (hEdg1)) [µM] | EC50 (S1P1 [1]) [µM] | EC50 (S1P1 [2]; relative EC50 was measured (footnote 1), read-out: Assay 3b Relative EC50) [µM] | EC50 (S1P1 [3]) [µM] | EC50 (S1P1 [2]; read-out: Assay 3b EC50) [µM] | EC50 (S1P1 [2]; footnote 1: Relative EC50 was measured, read-out: Assay 3b Relative EC50) [µM] | EC50 (S1P1 [4]) [µM] |
| --- | --- | --- | --- | --- | --- | --- | --- |
| O=C(O)CCc1ccc(-c2noc(-c3cn4cc(C(F)(F)F)cc(Cl)c4n3)n2)cc1Cl [Entry 7] | 1 to 5 | ≤ 0.1 | 0.1 to 0.5 | ≤ 0.1 | – | – | – |
| Cc1cc(C2CC2C(=O)O)c(F)cc1-c1noc(-c2cn3cc(C(F)(F)F)cc(Cl)c3n2)n1 (centres unmarked) [Example 79, 2-(4-{5-[8-chloro-6-(trifluoromethyl)imidazo[1,2-a]pyridin-2-yl]-1,2,4-oxadiazol-3-yl}-2-fluoro-5-methylphenyl)cyclopropanecarboxylic acid] | 0.5 to 1 | ≤ 0.1 | – | ≤ 0.1 | 0.1 to 0.5 | – | – |
| C[C@@H](CO)Oc1cc(Cl)c(-c2noc(-c3cn4cc(C(F)(F)F)cc(Cl)c4n3)n2)cc1F [Example 96, (2S)-2-[(5-chloro-4-{5-[8-chloro-6-(trifluoromethyl)imidazo[1,2-a]pyridin-2-yl]-1,2,4-oxadiazol-3-yl}-2-fluorophenyl)oxy]propan-1-ol] | ≤ 0.1 | ≤ 0.1 | – | ≤ 0.1 | 0.1 to 0.5 | – | – |
| Cc1cc(C(C)CC(=O)O)ccc1-c1noc(-c2cn3cc(C(F)(F)F)cc(Br)c3n2)n1 (centres unmarked) [Example 153, 3-(4-{5-[8-bromo-6-(trifluoromethyl)imidazo[1,2-a]pyridin-2-yl]-1,2,4-oxadiazol-3-yl}-3-methylphenyl)butanoic acid] | – | 0.1 to 0.5 | – | ≤ 0.1 | – | 0.5 to 1 | – |
| Cc1cc(-c2noc(-c3cn4cc(C(F)(F)F)cc(Cl)c4n3)n2)cc(C)c1OCC(O)CO (centres unmarked) [Example 161, 3-[(4-{5-[8-chloro-6-(trifluoromethyl)imidazo[1,2-a]pyridin-2-yl]-1,2,4-oxadiazol-3-yl}-2,6-dimethylphenyl)oxy]propane-1,2-diol] | ≤ 0.1 | ≤ 0.1 | – | ≤ 0.1 | 0.1 to 0.5 | – | – |
| CC(CC(=O)O)c1ccc(-c2noc(-c3cn4cc(C(F)(F)F)cc(Cl)c4n3)n2)c(Cl)c1 (centres unmarked) [Example 172, 3-(3-chloro-4-{5-[8-chloro-6-(trifluoromethyl)imidazo[1,2-a]pyridin-2-yl]-1,2,4-oxadiazol-3-yl}phenyl)butanoic acid] | – | 0.1 to 0.5 | – | ≤ 0.1 | 1 to 5 | – | – |
| NCC(O)COc1cc(Cl)c(-c2noc(-c3cn4cc(C(F)(F)F)cc(Cl)c4n3)n2)cc1Cl (centres unmarked) [Example 226, 1-amino-3-[(2,5-dichloro-4-{5-[8-chloro-6-(trifluoromethyl)imidazo[1,2-a]pyridin-2-yl]-1,2,4-oxadiazol-3-yl}phenyl)oxy]propan-2-ol] | – | ≤ 0.1 | – | ≤ 0.1 | 0.5 to 1 | – | – |
| O=C(O)CCc1cc(Cl)c(-c2nc(-c3cn4cc(C(F)(F)F)cc(Br)c4n3)no2)cc1F [Example 238, 3-(4-{3-[8-bromo-6-(trifluoromethyl)imidazo[1,2-a]pyridin-2-yl]-1,2,4-oxadiazol-5-yl}-5-chloro-2-fluorophenyl)propanoic acid] | – | ≤ 0.1 | – | ≤ 0.1 | 0.1 to 0.5 | – | – |
| CS(=O)(=O)Nc1ccc(-c2nnc(-c3cn4cc(C(F)(F)F)cc(Cl)c4n3)s2)c(Cl)c1 [Example 239, N-(3-chloro-4-{5-[8-chloro-6-(trifluoromethyl)imidazo[1,2-a]pyridin-2-yl]-1,3,4-thiadiazol-2-yl}phenyl)methanesulfonamide] | – | ≤ 0.1 | – | ≤ 0.1 | 0.1 to 0.5 | – | ≤ 0.1 |
| NCCOc1ccc(-c2nnc(-c3cn4cc(C(F)(F)F)cc(Cl)c4n3)s2)c(Cl)c1 [Example 244, 2-[(3-chloro-4-{5-[8-chloro-6-(trifluoromethyl)imidazo[1,2-a]pyridin-2-yl]-1,3,4-thiadiazol-2-yl}phenyl)oxy]ethanamine] | 0.1 to 0.5 | 0.1 to 0.5 | – | ≤ 0.1 | 0.5 to 1 | – | – |
| CC(CO)Oc1ccc(-c2noc(-c3cn4cc(C(F)(F)F)cc(Cl)c4n3)n2)c(Cl)c1 (centres unmarked) [Example 256, 2-[(3-chloro-4-{5-[8-chloro-6-(trifluoromethyl)imidazo[1,2-a]pyridin-2-yl]-1,2,4-oxadiazol-3-yl}phenyl)oxy]propan-1-ol] | 0.5 to 1 | ≤ 0.1 | – | ≤ 0.1 | 0.1 to 0.5 | – | – |
| NCCOc1ccc(-c2noc(-c3cn4cc(C(F)(F)F)cc(Cl)c4n3)n2)c(Cl)c1 [Example 257, 2-[(3-chloro-4-{5-[8-chloro-6-(trifluoromethyl)imidazo[1,2-a]pyridin-2-yl]-1,2,4-oxadiazol-3-yl}phenyl)oxy]ethanamine] | – | ≤ 0.1 | – | ≤ 0.1 | 0.1 to 0.5 | – | 0.1 to 0.5 |
| CC(CO)Oc1cc(Cl)c(-c2noc(-c3cn4cc(C(F)(F)F)cc(Cl)c4n3)n2)cc1F (centres unmarked) [Example 259, 2-[(5-chloro-4-{5-[8-chloro-6-(trifluoromethyl)imidazo[1,2-a]pyridin-2-yl]-1,2,4-oxadiazol-3-yl}-2-fluorophenyl)oxy]propan-1-ol] | ≤ 0.1 | ≤ 0.1 | – | ≤ 0.1 | 0.1 to 0.5 | – | – |
| O=C(O)CCc1ccc(-c2nnc(-c3cn4cc(C(F)(F)F)cc(Cl)c4n3)s2)c(Cl)c1 [Example 283, 3-(3-chloro-4-{5-[8-chloro-6-(trifluoromethyl)imidazo[1,2-a]pyridin-2-yl]-1,3,4-thiadiazol-2-yl}phenyl)propanoic acid] | 0.1 to 0.5 | ≤ 0.1 | – | ≤ 0.1 | 0.1 to 0.5 | – | – |
| Cc1c(I)ccc2nc(-c3nc(-c4cc(F)c(CCC(=O)O)cc4Cl)no3)cn12 [Example 300, 3-{5-chloro-2-fluoro-4-[5-(6-iodo-5-methylimidazo[1,2-a]pyridin-2-yl)-1,2,4-oxadiazol-3-yl]phenyl}propanoic acid] | 1 to 5 | ≤ 0.1 | – | ≤ 0.1 | 0.1 to 0.5 | – | – |
